We go through 13 compounds from patent publication US20250215030A1, “STAT MODULATORS AND USES THEREOF” (Recludix Pharma, Inc., priority 2022, published 2025).

In test [1] the target is T1, Recombinant STAT3 protein (STAT3(G127-I722)) (Homo sapiens, UniProt P40763).
T1 construct: STAT3(G127-I722)
Kind of test: STAT3 Fluorescence Polarization (FP) Assay. It is filed as binding. The settings on record: STAT3(G127-I722) 25 nM, probe 5-FAM-GpYLPQTV-NH2 2 nM, 45-minute incubation. The method, boiled down: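 Serially diluted compounds (1% DMSO) were mixed with 2 nM fluorescent phosphotyrosine peptide and 25 nM STAT3 construct G127-I722, pH 7.4, incubated 45 min at room temperature. IC50 values from fitted polarization curves are reported as categories A (≤100 nM), B, C, D (>10 μM).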
A general note: Fluorescence polarisation rises when a labelled molecule tumbles more slowly, as on binding a larger partner.

Test [2] addresses T2, Recombinant STAT6 protein (STAT6(W123-T658)) (Homo sapiens, UniProt P42226).
T2 construct: STAT6(W123-T658)
T2 sequence (P42226 123-658): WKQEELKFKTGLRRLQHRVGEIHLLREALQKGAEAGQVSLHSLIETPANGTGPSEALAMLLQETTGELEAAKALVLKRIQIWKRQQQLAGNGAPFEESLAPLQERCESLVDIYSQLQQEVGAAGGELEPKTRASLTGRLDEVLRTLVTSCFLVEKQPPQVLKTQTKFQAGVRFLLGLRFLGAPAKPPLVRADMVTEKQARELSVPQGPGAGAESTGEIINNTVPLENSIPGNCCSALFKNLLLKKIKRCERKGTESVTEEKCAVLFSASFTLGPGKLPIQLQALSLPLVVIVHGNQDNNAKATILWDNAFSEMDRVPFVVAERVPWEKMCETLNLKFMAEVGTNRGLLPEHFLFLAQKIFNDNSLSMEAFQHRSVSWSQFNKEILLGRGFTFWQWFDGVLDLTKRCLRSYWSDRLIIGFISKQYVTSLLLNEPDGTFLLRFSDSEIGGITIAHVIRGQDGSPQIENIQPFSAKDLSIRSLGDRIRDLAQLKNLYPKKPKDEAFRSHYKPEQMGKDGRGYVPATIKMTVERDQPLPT
Kind of test: STAT6 Fluorescence Polarization (FP) Assay. It is filed as binding. The settings on record: STAT6(W123-T658) 250 nM, probe 5-FAM-ApYKPFQDLI-NH2 2 nM, 45-minute incubation. The essentials: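 Competitive displacement of a fluorescent phosphotyrosine peptide (2 nM) from recombinant STAT6 W123-T658 (250 nM), 45 min at room temperature in 10 mM HEPES pH 7.4, 50 mM NaCl, 2 mM DTT. mP fitted against log compound for IC50, grouped A (≤300 nM) to D (>30 μM).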

Where only a bound is given, the exact number is not on record here.

T1 sequence (P40763 127-722, species assumed): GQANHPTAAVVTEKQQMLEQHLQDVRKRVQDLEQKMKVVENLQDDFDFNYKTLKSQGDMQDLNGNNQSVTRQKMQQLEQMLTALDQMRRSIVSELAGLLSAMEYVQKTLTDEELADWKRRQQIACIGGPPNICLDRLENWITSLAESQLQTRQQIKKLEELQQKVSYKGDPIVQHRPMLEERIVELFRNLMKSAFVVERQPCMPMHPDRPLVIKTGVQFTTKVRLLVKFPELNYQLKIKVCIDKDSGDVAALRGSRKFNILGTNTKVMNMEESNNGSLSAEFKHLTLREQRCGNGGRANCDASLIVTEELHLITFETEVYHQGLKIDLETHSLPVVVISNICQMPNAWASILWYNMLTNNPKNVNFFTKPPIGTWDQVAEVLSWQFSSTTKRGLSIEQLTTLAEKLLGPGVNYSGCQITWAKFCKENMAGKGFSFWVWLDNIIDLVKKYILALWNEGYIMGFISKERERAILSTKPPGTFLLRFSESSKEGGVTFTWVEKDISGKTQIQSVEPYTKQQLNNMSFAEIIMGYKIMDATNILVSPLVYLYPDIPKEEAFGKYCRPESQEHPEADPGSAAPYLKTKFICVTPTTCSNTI

Regarding `O=C(N[C@H]1C[C@@H]2C[C@@H]2C[C@H]2CC[C@@H](C(=O)N3CC(Oc4cnccn4)C3)N2C1=O)c1cc2cc(CP(=O)(O)O)ccc2s1` [Example 334, ((2-(((3S,6S,7aS,8aR,9aR)-5-oxo-3-(3-(pyrazin-2-yloxy)azetidine-1-carbonyl)decahydro-1H-cyclopropa[d]pyrrolo[1,2-a]azocin-6-yl)carbamoyl)benzo[b]thiophen-5-yl)methyl)phosphonic acid], the IC50 in test [1] is 1 to 10 µM; in test [2] it was > 30 µM.
As to `Cn1cc(OC2CN(C(=O)[C@@H]3CC[C@@H]4C[C@H]5C[C@H]5C[C@H](NC(=O)c5cc6cc(CP(=O)(O)O)ccc6s5)C(=O)N43)C2)cn1` [Example 335, ((2-(((3S,6S,7aS,8aR,9aR)-3-(3-((1-methyl-1H-pyrazol-4-yl)oxy)azetidine-1-carbonyl)-5-oxodecahydro-1H-cyclopropa[d]pyrrolo[1,2-a]azocin-6-yl)carbamoyl)benzo[b]thiophen-5-yl)methyl)phosphonic acid], the IC50 in test [1] was 1 to 10 µM; in test [2] it was > 30 µM.
The corresponding values for `COc1cc(C2CN(C(=O)[C@@H]3CC[C@@H]4C[C@H]5C[C@H]5C[C@H](NC(=O)c5cc6cc(C(F)P(=O)(O)O)ccc6s5)C(=O)N43)C2)on1` (stereo partly drawn) [Example 336, (fluoro(2-(((3S,6S,7aS,8aR,9aR)-3-(3-(3-methoxyisoxazol-5-yl)azetidine-1-carbonyl)-5-oxodecahydro-1H-cyclopropa[d]pyrrolo[1,2-a]azocin-6-yl)carbamoyl)benzo[b]thiophen-5-yl)methyl)phosphonic acid] are 0.1 to 1 µM and 3 to 30 µM.
Consider `Cc1cc(C2CN(C(=O)[C@@H]3CC[C@@H]4C[C@H]5C[C@H]5C[C@H](NC(=O)c5cc6cc(C(F)P(=O)(O)O)ccc6s5)C(=O)N43)C2)no1` (stereo partly drawn) [Example 337, (fluoro(2-(((3S,6S,7aS,8aR,9aR)-3-(3-(5-methylisoxazol-3-yl)azetidine-1-carbonyl)-5-oxodecahydro-1H-cyclopropa[d]pyrrolo[1,2-a]azocin-6-yl)carbamoyl)benzo[b]thiophen-5-yl)methyl)phosphonic acid], for which the IC50 in test [1] is < 0.1 µM; in test [2], 3 to 30 µM.
As for `O=C(N[C@H]1C[C@@H]2C[C@@H]2C[C@H]2CC[C@@H](C(=O)N[C@H]3CN(c4ncc[nH]4)C[C@@H]3F)N2C1=O)c1cc2cc(C(F)P(=O)(O)O)ccc2s1` (stereo partly drawn) [Example 339, (fluoro(2-(((3S,6S,7aS,8aR,9aR)-3-(((3S,4S)-4-fluoro-1-(1H-imidazol-2-yl)pyrrolidin-3-yl)carbamoyl)-5-oxodecahydro-1H-cyclopropa[d]pyrrolo[1,2-a]azocin-6-yl)carbamoyl)benzo[b]thiophen-5-yl)methyl)phosphonic acid], the IC50 in test [1] is < 0.1 µM; in test [2], 0.3 to 3 µM.
Consider `NC(=O)N1C[C@H](NC(=O)[C@@H]2CC[C@@H]3C[C@H]4C[C@H]4C[C@H](NC(=O)c4cc5cc(C(F)P(=O)(O)O)ccc5s4)C(=O)N32)C(F)(F)C1` (stereo partly drawn) [Example 340, ((2-(((3S,6S,7aS,8aR,9aR)-3-(((S)-1-carbamoyl-4,4-difluoropyrrolidin-3-yl)carbamoyl)-5-oxodecahydro-1H-cyclopropa[d]pyrrolo[1,2-a]azocin-6-yl)carbamoyl)benzo[b]thiophen-5-yl)fluoromethyl)phosphonic acid], for which the figures for the IC50 in test [1] and in test [2] were < 0.1 µM and 3 to 30 µM, respectively.
Regarding `CS(=N)(=O)CC1CN(C(=O)[C@@H]2CC[C@@H]3C[C@H]4C[C@H]4C[C@H](NC(=O)c4cc5cc(C(F)P(=O)(O)O)ccc5s4)C(=O)N32)C1` (stereo partly drawn) [Example 341, (fluoro(2-(((3S,6S,7aS,8aR,9aR)-3-(3-((S-methylsulfonimidoyl)methyl)azetidine-1-carbonyl)-5-oxodecahydro-1H-cyclopropa[d]pyrrolo[1,2-a]azocin-6-yl)carbamoyl)benzo[b]thiophen-5-yl)methyl)phosphonic acid], the results for the IC50 in test [1] and in test [2] were < 0.1 µM and 3 to 30 µM, respectively.
In the same order, the values of `O=C(N[C@H]1C[C@@H]2C[C@@H]2C[C@H]2CC[C@@H](C(=O)N3CC(Oc4ncccn4)C3)N2C1=O)c1cc2cc(CP(=O)(O)O)ccc2s1` [Example 342, ((2-(((3S,6S,7aS,8aR,9aR)-5-oxo-3-(3-(pyrimidin-2-yloxy)azetidine-1-carbonyl)decahydro-1H-cyclopropa[d]pyrrolo[1,2-a]azocin-6-yl)carbamoyl)benzo[b]thiophen-5-yl)methyl)phosphonic acid] are 1 to 10 µM and > 30 µM.
Consider `CCc1ccncc1C1CN(C(=O)[C@@H]2CC[C@@H]3C[C@@H]4C[C@@H]4C[C@H](NC(=O)c4cc5cc(CP(=O)(O)O)ccc5s4)C(=O)N32)C1` [Example 343, ((2-(((3S,6S,7aR,8aS,9aR)-3-(3-(4-ethylpyridin-3-yl)azetidine-1-carbonyl)-5-oxodecahydro-1H-cyclopropa[d]pyrrolo[1,2-a]azocin-6-yl)carbamoyl)benzo[b]thiophen-5-yl)methyl)phosphonic acid], for which the concentration for half-maximal inhibition (IC50) is < 0.1 µM in test [1] and > 30 µM in test [2].
As for `O=C(N[C@H]1C[C@@H]2C[C@@H]2C[C@H]2CC[C@@H](C(=O)N[C@H]3CN(c4nc[nH]n4)C[C@@H]3F)N2C1=O)c1cc2cc(C(F)P(=O)(O)O)ccc2s1` (stereo partly drawn) [Example 347, (fluoro(2-(((3S,6S,7aS,8aR,9aR)-3-(((3S,4S)-4-fluoro-1-(1H-1,2,4-triazol-3-yl)pyrrolidin-3-yl)carbamoyl)-5-oxodecahydro-1H-cyclopropa[d]pyrrolo[1,2-a]azocin-6-yl)carbamoyl)benzo[b]thiophen-5-yl)methyl)phosphonic acid], the 50% inhibitory concentration (IC50) in test [1] is 0.1 to 1 µM; in test [2], 3 to 30 µM.
In the same order, the values of `Cc1cn(C)c(N2C[C@H](NC(=O)[C@@H]3CC[C@@H]4C[C@H]5C[C@H]5C[C@H](NC(=O)c5cc6cc(C(F)P(=O)(O)O)ccc6s5)C(=O)N43)[C@@H](F)C2)n1` (stereo partly drawn) [Example 348, ((2-(((3S,6S,7aS,8aR,9aR)-3-(((3S,4S)-1-(1,4-dimethyl-1H-imidazol-2-yl)-4-fluoropyrrolidin-3-yl)carbamoyl)-5-oxodecahydro-1H-cyclopropa[d]pyrrolo[1,2-a]azocin-6-yl)carbamoyl)benzo[b]thiophen-5-yl)fluoromethyl)phosphonic acid] are < 0.1 µM and 3 to 30 µM.
For the compound `O=C(N[C@H]1C[C@@H]2C[C@@H]2C[C@H]2CC[C@@H](C(=O)N3CC(Cc4cccc(F)c4)C3)N2C1=O)c1cc2cc(CP(=O)(O)O)ccc2s1` [Example 349, ((2-(((3S,6S,7aS,8aR,9aR)-3-(3-(3-fluorobenzyl)azetidine-1-carbonyl)-5-oxodecahydro-1H-cyclopropa[d]pyrrolo[1,2-a]azocin-6-yl)carbamoyl)benzo[b]thiophen-5-yl)methyl)phosphonic acid], the IC50 in test [1] was 0.1 to 1 µM; in test [2], 3 to 30 µM.
`O=C(N[C@H]1C[C@@H]2C[C@@H]2C[C@H]2CC[C@@H](C(=O)N3CC(Oc4cccnc4)C3)N2C1=O)c1cc2cc(CP(=O)(O)O)ccc2s1` [Example 350, ((2-(((3S,6S,7aS,8aR,9aR)-5-oxo-3-(3-(pyridin-3-yloxy)azetidine-1-carbonyl)decahydro-1H-cyclopropa[d]pyrrolo[1,2-a]azocin-6-yl)carbamoyl)benzo[b]thiophen-5-yl)methyl)phosphonic acid]: the IC50 in test [1] is 0.1 to 1 µM; in test [2] it was 3 to 30 µM.

A word on the IC50: it is the point on the concentration scale where inhibition reaches its midpoint.
